In patent publication US9587005B2 (priority 2010, dated 2017):
*1 amine or outer side, *2 acyl side, *3 side chain or, on linkers, in order; H or OH if unused. Where a SMILES comes first, the peptide text is derived from it. Bridges are numbered along the chain shown (N, C = ends). Where no end group is shown, it is not given here. Side-chain parts run from the residue outwards. [ ]: non-standard residue; d: D form. The star is where a group is joined. γGlu = O=C(O)[C@H](CCC(=O)[*:2])N[*:1]; Palmitoyl = CCCCCCCCCCCCCCCC(=O)*; Aib = CC(C)(N)C(=O)O

Legend:
GLP-1 receptor = biological target: T1, GLP-1 receptor (Homo sapiens, UniProt P43220); assay: cAMP induction, firefly luciferase reporter assay in HEK293 cells co-transfected with GLP-1 receptor; type: cell-based
T1 construct: expressed in transfected cells; host or cells: HEK293
T1 sequence (P43220 24-463): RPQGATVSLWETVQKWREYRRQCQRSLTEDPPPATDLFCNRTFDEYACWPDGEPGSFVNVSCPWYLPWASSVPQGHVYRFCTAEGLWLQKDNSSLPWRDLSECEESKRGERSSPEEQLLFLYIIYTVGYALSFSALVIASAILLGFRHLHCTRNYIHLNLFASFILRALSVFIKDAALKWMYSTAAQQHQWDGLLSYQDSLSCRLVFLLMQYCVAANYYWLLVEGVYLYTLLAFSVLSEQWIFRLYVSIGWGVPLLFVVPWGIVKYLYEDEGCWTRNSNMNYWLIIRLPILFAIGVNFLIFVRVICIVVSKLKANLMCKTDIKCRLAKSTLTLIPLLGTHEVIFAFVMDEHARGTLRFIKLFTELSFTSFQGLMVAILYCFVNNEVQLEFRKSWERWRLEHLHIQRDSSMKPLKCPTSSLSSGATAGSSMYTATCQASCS
Excerpt: This example describes an exemplary method of testing the biological activity of the peptides of the present disclosures, which method involves assaying cAMP synthesis.

GIP receptor = biological target: T2, GIP receptor (Homo sapiens, UniProt P48546); assay: cAMP induction, firefly luciferase reporter assay in HEK293 cells co-transfected with GIP receptor; type: cell-based
T2 sequence (P48546 22-466): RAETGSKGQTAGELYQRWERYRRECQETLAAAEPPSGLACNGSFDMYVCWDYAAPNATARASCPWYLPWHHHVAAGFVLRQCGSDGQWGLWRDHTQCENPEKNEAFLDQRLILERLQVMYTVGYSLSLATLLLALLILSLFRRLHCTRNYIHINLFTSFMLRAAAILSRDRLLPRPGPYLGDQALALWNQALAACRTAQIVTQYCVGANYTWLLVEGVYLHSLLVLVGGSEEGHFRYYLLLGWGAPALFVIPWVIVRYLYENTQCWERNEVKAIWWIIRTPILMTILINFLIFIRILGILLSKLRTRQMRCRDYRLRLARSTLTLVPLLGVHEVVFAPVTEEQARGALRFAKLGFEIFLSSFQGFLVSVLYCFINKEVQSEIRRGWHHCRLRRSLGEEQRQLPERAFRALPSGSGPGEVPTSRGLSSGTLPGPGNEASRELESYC

[1] = EC50 (nM) at GLP-1 Receptor, Table 6, Example 12
[2] = EC50 (nM) at GIP Receptor, Table 6, Example 12

Compound | EC50 (GLP-1 receptor; [1]) | EC50 (GIP receptor; [2]) | further results
CCCCCCCCCCCCCCCC(=O)N[C@@H](CCC(=O)NCCCC[C@H](NC(=O)[C@H](CC(=O)O)NC(=O)[C@H](CO)NC(=O)[C@@H](NC(=O)[C@H](Cc1ccccc1)NC(=O)[C@@H](NC(=O)CNC(=O)[C@H](CCC(=O)O)NC(=O)C(C)(C)NC(=O)[C@@H](N)Cc1c[nH]cn1)[C@@H](C)O)[C@@H](C)O)C(=O)N[C@@H](CO)C(=O)N[C@@H](CCCCN)C(=O)N[C@@H](Cc1ccc(O)cc1)C(=O)N[C@@H](CC(C)C)C(=O)N[C@@H](CC(=O)O)C(=O)N[C@@H](CCC(=O)O)C(=O)N[C@@H](CCCNC(=N)N)C(=O)N[C@@H](CCCNC(=N)N)C(=O)N[C@@H](C)C(=O)NC(C)(C)C(=O)N[C@@H](CC(=O)O)C(=O)N[C@@H](Cc1ccccc1)C(=O)N[C@H](C(=O)N[C@@H](CCC(N)=O)C(=O)N[C@@H](Cc1c[nH]c2ccccc12)C(=O)N[C@@H](CC(C)C)C(=O)N[C@@H](CC(C)C)C(=O)N[C@@H](CC(=O)O)C(=O)NCC(=O)NCC(=O)N1CCC[C@H]1C(=O)N[C@@H](CO)C(=O)N[C@@H](CO)C(=O)NCC(=O)N[C@@H](C)C(=O)N1CCC[C@H]1C(=O)N1CCC[C@H]1C(=O)N1CCC[C@H]1C(=O)N[C@@H](CO)C(N)=O)C(C)C)C(=O)O [compound 41] (H-H[Aib]EGTFTSDK([γGlu-Palmitoyl])SKYLDERRA[Aib]DFVQWLLDGGPSSGAPPPS-NH2) | – | – | EC50 (GLP-1 receptor; EC50 (nM) at GLP-1 Receptor, Table 4, Example 9, composite of multiple different activity assays): 0.006 nM; EC50 (GIP receptor; EC50 (nM) at GIP Receptor, Table 4, Example 9, composite of multiple different activity assays): 0.013 nM
CC[C@H](C)[C@H](NC(=O)[C@H](CO)NC(=O)[C@H](Cc1ccc(O)cc1)NC(=O)[C@H](CC(=O)O)NC(=O)[C@H](CO)NC(=O)[C@@H](NC(=O)[C@H](Cc1ccccc1)NC(=O)[C@@H](NC(=O)CNC(=O)[C@H](CCC(N)=O)NC(=O)[C@@H](CO)NC(=O)[C@@H](N)Cc1c[nH]cn1)[C@@H](C)O)[C@@H](C)O)C(=O)N[C@@H](Cc1ccc(O)cc1)C(=O)N[C@@H](CC(C)C)C(=O)N[C@@H](CC(=O)O)C(=O)N[C@@H](CCCCN)C(=O)N[C@@H](CCC(N)=O)C(=O)N[C@@H](C)C(=O)N[C@@H](C)C(=O)NC(C)(C)C(=O)N[C@@H](CCC(=O)O)C(=O)N[C@@H](Cc1ccccc1)C(=O)N[C@H](C(=O)N[C@@H](CC(N)=O)C(=O)N[C@@H](Cc1c[nH]c2ccccc12)C(=O)N[C@@H](CC(C)C)C(=O)N[C@@H](CC(C)C)C(=O)N[C@@H](C)C(=O)NCC(=O)NCC(=O)N1CCC[C@H]1C(=O)N[C@@H](CO)C(=O)N[C@@H](CO)C(=O)NCC(=O)N[C@@H](C)C(=O)N1CCC[C@H]1C(=O)N1CCC[C@H]1C(=O)N1CCC[C@H]1C(=O)N[C@@H](CO)C(=O)N[C@@H](CS)C(N)=O)C(C)C [compound 48] (H-H[dS]QGTFTSDYSIYLDKQAA[Aib]EFVNWLLAGGPSSGAPPPSC-NH2; N-terminus assumed) | 0.01 nM | 0.433 nM | –
CC[C@H](C)[C@H](NC(=O)[C@H](CO)NC(=O)[C@H](Cc1ccc(O)cc1)NC(=O)[C@H](CC(=O)O)NC(=O)[C@H](CO)NC(=O)[C@@H](NC(=O)[C@H](Cc1ccccc1)NC(=O)[C@@H](NC(=O)CNC(=O)[C@H](CCC(N)=O)NC(=O)C(C)(C)NC(=O)[C@@H](N)Cc1c[nH]cn1)[C@@H](C)O)[C@@H](C)O)C(=O)N[C@@H](Cc1ccc(O)cc1)C(=O)N[C@@H](CC(C)C)C(=O)N[C@@H](CC(=O)O)C(=O)N[C@@H](CCCCN)C(=O)N[C@@H](CCC(N)=O)C(=O)N[C@@H](C)C(=O)N[C@@H](C)C(=O)NC(C)(C)C(=O)N[C@@H](CCC(=O)O)C(=O)N[C@@H](Cc1ccccc1)C(=O)N[C@H](C(=O)N[C@@H](CC(N)=O)C(=O)N[C@@H](Cc1c[nH]c2ccccc12)C(=O)N[C@@H](CC(C)C)C(=O)N[C@@H](CC(C)C)C(=O)N[C@@H](C)C(=O)NCC(=O)NCC(=O)N1CCC[C@H]1C(=O)N[C@@H](CO)C(=O)N[C@@H](CO)C(=O)NCC(=O)N[C@@H](C)C(=O)N1CCC[C@H]1C(=O)N1CCC[C@H]1C(=O)N1CCC[C@H]1C(=O)N[C@@H](CO)C(=O)N[C@@H](CS)C(N)=O)C(C)C [compound 52] (H-H[Aib]QGTFTSDYSIYLDKQAA[Aib]EFVNWLLAGGPSSGAPPPSC-NH2) | 0.005 nM | 0.006 nM | –
CC[C@H](C)[C@H](NC(=O)[C@H](CO)NC(=O)[C@H](Cc1ccc(O)cc1)NC(=O)[C@H](CC(=O)O)NC(=O)[C@H](CO)NC(=O)[C@@H](NC(=O)[C@H](Cc1ccccc1)NC(=O)[C@@H](NC(=O)CNC(=O)[C@H](CCC(N)=O)NC(=O)C(C)(C)NC(=O)[C@@H](N)Cc1ccc(O)cc1)[C@@H](C)O)[C@@H](C)O)C(=O)N[C@@H](Cc1ccc(O)cc1)C(=O)N[C@@H](CC(C)C)C(=O)N[C@@H](CC(=O)O)C(=O)N[C@@H](CCCCN)C(=O)N[C@H]1CCC(=O)NCCCC[C@@H](C(=O)N[C@@H](Cc2ccccc2)C(=O)N[C@H](C(=O)N[C@@H](CC(N)=O)C(=O)N[C@@H](Cc2c[nH]c3ccccc23)C(=O)N[C@@H](CC(C)C)C(=O)N[C@@H](CC(C)C)C(=O)N[C@@H](C)C(=O)NCC(=O)NCC(=O)N2CCC[C@H]2C(=O)N[C@@H](CO)C(=O)N[C@@H](CO)C(=O)NCC(=O)N[C@@H](C)C(=O)N2CCC[C@H]2C(=O)N2CCC[C@H]2C(=O)N2CCC[C@H]2C(=O)N[C@@H](CO)C(=O)N[C@@H](CS)C(N)=O)C(C)C)NC(=O)C(C)(C)NC(=O)[C@H](C)NC(=O)[C@H](C)NC1=O [compound 58] (H-Y[Aib]QGTFTSDYSIYLDKEAA[Aib]KFVNWLLAGGPSSGAPPPSC-NH2; lactam 17-21) | 0.014 nM | 0.005 nM | –
CCCCCCCCCCCCCCCC(=O)N[C@@H](CCC(=O)N[C@@H](CCC(=O)NCCCC[C@H](NC(=O)[C@H](CC(=O)O)NC(=O)[C@H](CO)NC(=O)[C@@H](NC(=O)[C@H](Cc1ccccc1)NC(=O)[C@@H](NC(=O)CNC(=O)[C@H](CCC(N)=O)NC(=O)C(C)(C)NC(=O)[C@@H](N)Cc1ccc(O)cc1)[C@@H](C)O)[C@@H](C)O)C(=O)N[C@@H](CO)C(=O)N[C@H](C(=O)N[C@@H](Cc1ccc(O)cc1)C(=O)N[C@@H](CC(C)C)C(=O)N[C@@H](CC(=O)O)C(=O)N[C@@H](CCCCN)C(=O)N[C@@H](CCC(N)=O)C(=O)N[C@@H](C)C(=O)N[C@@H](C)C(=O)NC(C)(C)C(=O)N[C@@H](CCC(=O)O)C(=O)N[C@@H](Cc1ccccc1)C(=O)N[C@H](C(=O)N[C@@H](CC(N)=O)C(=O)N[C@@H](Cc1c[nH]c2ccccc12)C(=O)N[C@@H](CC(C)C)C(=O)N[C@@H](CC(C)C)C(=O)N[C@@H](CC(=O)O)C(=O)N[C@H](C(N)=O)[C@@H](C)O)C(C)C)[C@@H](C)CC)C(=O)O)C(=O)O [compound 92] (H-Y[Aib]QGTFTSDK([γGlu-γGlu-Palmitoyl])SIYLDKQAA[Aib]EFVNWLLDT-NH2; N-terminus assumed) | – | – | EC50 (GLP-1 receptor; EC50 (nM) at GLP-1 Receptor, Table 7, Example 13): 0.0031 nM; EC50 (GIP receptor; EC50 (nM) at GIP Receptor, Table 7, Example 13): 0.021 nM
H[Aib]EGTFTSDYSKYLDERAAQDFVQWLLDGGPSSGAPPPSK([γGlu-γGlu-Palmitoyl])G-NH2 [SEQ ID NO: 171] | – | – | EC50 (GLP-1 receptor; EC50 (nM) at GLP-1 receptor, Table 15, Example 23): 0.005 nM; EC50 (GIP receptor; EC50 (nM) at GIP receptor, Table 15, Example 23): 0.038 nM
